Assay results: US6608061B2, “Bisaryl compound and medicament for cancer treatment comprising the same” (Kyoma Hakko Kogyo Co., Ltd., priority 1997, dated 2003)
Like-named read-outs stand apart in the source and are kept apart here.

Key:
[1] = target: T1, human RNR (purified R1 and R2 subunits) (Homo sapiens, UniProt P23921+P31350); test: In vitro measurement of human RNR inhibitory activity (conversion of CDP to dCDP, HPLC); assay type: biochemical; conditions: 100 μM CDP, 37° C., 30 minutes, read-out: RNR Inhibition (IC50)
T1 construct: made in house; host or cells: Escherichia coli BL21(λDE3)pLysS, plasmids pETR1 and pETR2 (pET3a backbone)
T1 sequence (P23921 1-792): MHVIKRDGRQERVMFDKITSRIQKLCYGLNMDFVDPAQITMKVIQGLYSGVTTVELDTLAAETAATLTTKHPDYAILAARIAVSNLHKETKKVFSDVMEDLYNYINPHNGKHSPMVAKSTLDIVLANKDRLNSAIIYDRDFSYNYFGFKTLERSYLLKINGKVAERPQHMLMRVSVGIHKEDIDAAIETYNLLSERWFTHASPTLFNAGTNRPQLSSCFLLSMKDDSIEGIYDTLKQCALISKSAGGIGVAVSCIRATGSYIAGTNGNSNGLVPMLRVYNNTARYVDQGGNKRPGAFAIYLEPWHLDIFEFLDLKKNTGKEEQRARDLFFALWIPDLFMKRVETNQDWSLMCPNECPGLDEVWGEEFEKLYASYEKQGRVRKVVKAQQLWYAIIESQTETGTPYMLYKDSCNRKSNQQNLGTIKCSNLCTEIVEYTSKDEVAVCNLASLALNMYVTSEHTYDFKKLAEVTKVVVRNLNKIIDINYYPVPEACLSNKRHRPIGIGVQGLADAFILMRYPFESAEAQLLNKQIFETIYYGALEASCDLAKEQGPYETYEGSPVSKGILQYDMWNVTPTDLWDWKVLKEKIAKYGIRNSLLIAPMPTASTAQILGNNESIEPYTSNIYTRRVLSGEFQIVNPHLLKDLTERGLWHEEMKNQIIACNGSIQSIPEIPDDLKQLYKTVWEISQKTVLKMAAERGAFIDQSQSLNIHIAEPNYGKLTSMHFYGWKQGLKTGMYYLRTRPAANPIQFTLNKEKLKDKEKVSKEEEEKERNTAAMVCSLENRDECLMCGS
T1 sequence (P31350 1-389): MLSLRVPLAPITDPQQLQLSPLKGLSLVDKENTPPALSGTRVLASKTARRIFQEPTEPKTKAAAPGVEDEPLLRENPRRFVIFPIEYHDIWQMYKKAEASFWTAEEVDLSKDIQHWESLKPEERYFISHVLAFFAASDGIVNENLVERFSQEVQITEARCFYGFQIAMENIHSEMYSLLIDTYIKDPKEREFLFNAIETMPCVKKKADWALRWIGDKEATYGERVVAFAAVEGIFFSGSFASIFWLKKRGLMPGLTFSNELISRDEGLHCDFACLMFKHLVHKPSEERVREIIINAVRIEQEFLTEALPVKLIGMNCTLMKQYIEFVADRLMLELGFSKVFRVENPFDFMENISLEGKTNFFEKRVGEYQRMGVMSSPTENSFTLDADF

HeLa S3 cells = test: Test for growth inhibition of HeLa S3 cells; assay type: cell-based; conditions: HeLa S3 cells, 72 hours with test compound, Cell Proliferation Kit II, read-out: Cell growth inhibition (IC50)
Procedure: Test for Growth Inhibition of Hela S3 Cells
HeLa S3 cells prepared at 1×10^4 cells/ml in MEM culture medium containing 10% fetal bovine serum and 2 mM glutamine were added to each well of a 96-well microtiter plate (0.1 ml for each well). The cells were cultured at 37° C. in a CO2 incubator for 24 hours, and then 0.05 ml of test compound appropriately diluted with the above medium was added to each well, and then the mixture was cultured at 37° C. in a CO2 incubator for 72 hours. After the culture supernatant was removed, each well was washed with 0.1 ml of PBS buffer twice, and 0.1 ml of the aforementioned medium was added to each well again.
Cell Proliferation Kit II (Boehringer Mennheim) was used for measurement of cell number in each well. After a coloring reaction reagent was added, the plate was warmed to 37° C. in a CO2 incubator for 3 hours. Then, absorbances at 490 nm and 655 nm were measured by a microplate reader, and a value (difference of absorbance) was calculated for each well by subtracting the absorbance at […] from the absorbance at 490 nm. By comparing the differences of absorbance for cells without treatment and cells treated with a test compound at a known concentration, a concentration of test compound which inhibited the cell growth by 50% was calculated, and the value obtained was determined as IC50. The values of RNR inhibitory activity obtained in Example 8, and the values of cell growth inhibitory activity obtained in Example 9 are shown in the following tables (the compound numbers used in the tables correspond to the compound numbers shown in the aforementioned tables).

Compound	IC50 [1]	IC50 (HeLa S3 cells; Homo sapiens, HeLa S3, 72 h)	IC50 (HeLa S3 cells)
Oc1ccc(SCc2cccc(CSc3ccc(O)cc3)n2)cc1 [Compound 1]	4.26 µM	5.15 µM	
O=C1N(CS(=O)(=O)CCSc2ccc(O)cc2)CCCN1CS(=O)(=O)CCSc1ccc(O)cc1 [Compound 7]	4.82 µM	> 101 µM	
Oc1ccc(SCCNCCSc2ccc(O)cc2)cc1 [Compound 45]	3.64 µM	5.64 µM	
N=C(N)N(CCSc1ccc(O)cc1)CCSc1ccc(O)cc1 [Compound 49]	5.45 µM	16 µM	
O=C(CCSc1ccc(O)cc1)N(CCSc1ccc(O)cc1)CCSc1ccc(O)cc1 [Compound 52]	4.38 µM	6.5 µM	
O=CN(CCSc1ccc(O)cc1)CCSc1ccc(O)cc1 [Compound 53]	1.05 µM	1.71 µM	
CC(=O)N(CCSc1ccc(O)cc1)CCSc1ccc(O)cc1 [Compound 54]	0.48 µM	4.63 µM	
O=C(N(CCSc1ccc(O)cc1)CCSc1ccc(O)cc1)N1CCCc2ccccc21 [Compound 57]	0.73 µM	14.4 µM	
CC1CCc2ccccc2N1C(=O)N(CCSc1ccc(O)cc1)CCSc1ccc(O)cc1 (stereo not drawn) [Compound 58]	4.76 µM	18.6 µM	
NCCN(CCSc1ccc(O)cc1)CCSc1ccc(O)cc1 [Compound 59]	5.73 µM	5.81 µM	
CCN(CCSc1ccc(O)cc1)CCSc1ccc(O)cc1 [Compound 71]	1.23 µM	3.94 µM	
C#CCN(CCSc1ccc(O)cc1)CCSc1ccc(O)cc1 [Compound 73]	0.6 µM	1.61 µM	
C=CCN(CCSc1ccc(O)cc1)CCSc1ccc(O)cc1 [Compound 74]	0.82 µM	2 µM	
Oc1ccc(SCCN(CCSc2ccc(O)cc2)CC2CC2)cc1 [Compound 75]	1.66 µM	3.56 µM	
CCN(CC)C(=O)CCN(CCSc1ccc(O)cc1)CCSc1ccc(O)cc1 [Compound 80]	0.74 µM	1.43 µM	
CC(=O)CN(CCSc1ccc(O)cc1)CCSc1ccc(O)cc1 [Compound 81]	0.29 µM	1.23 µM	
NC(=O)NCCN(CCSc1ccc(O)cc1)CCSc1ccc(O)cc1 [Compound 82]	1.42 µM	1.3 µM	
CC(=O)NCCN(CCSc1ccc(O)cc1)CCSc1ccc(O)cc1 [Compound 83]	2.95 µM	5.17 µM	
O=C1CCC(=O)N1CCN(CCSc1ccc(O)cc1)CCSc1ccc(O)cc1 [Compound 86]	3.14 µM	3.78 µM	
CSCCN(CCSc1ccc(O)cc1)CCSc1ccc(O)cc1 [Compound 87]	1.01 µM	2.57 µM	
Oc1ccc(SCCN(CCSc2ccc(O)cc2)CC2OCCO2)cc1 [Compound 88]	1.79 µM	3.22 µM	
Oc1ccc(SCCN(CCSc2ccc(O)cc2)Cc2cccs2)cc1 [Compound 89]	1.46 µM	4.66 µM	
Oc1ccc(SCCN(CCSc2ccc(O)cc2)Cc2ccco2)cc1 [Compound 90]	2.03 µM	6.38 µM	
Oc1ccc(SCCN(CCSc2ccc(O)cc2)Cc2ccccc2O)cc1 [Compound 92]	0.89 µM	2.14 µM	
Oc1ccc(SCCN(CCSc2ccc(O)cc2)Cc2cccc(O)c2)cc1 [Compound 93]	0.63 µM	9.04 µM	
OCCCN(CCSc1ccc(O)cc1)CCSc1ccc(O)cc1 [Compound 95]	0.88 µM	3.56 µM	
Oc1ccc(SCCN(CCSc2ccc(O)cc2)Cc2ccccc2)cc1 [Compound 98]	3.36 µM	15 µM	
Oc1ccc(SCCN(CCSc2ccc(O)cc2)Cc2cccnc2)cc1 [Compound 99]	2.79 µM	5.8 µM	

Compound	IC50 [1]	IC50 (HeLa S3 cells; Homo sapiens, HeLa S3, 72 h)	IC50 (HeLa S3 cells)
Oc1ccc(SCCN(CCSc2ccc(O)cc2)Cc2ccc3ccccc3n2)cc1 [Compound 101]	5.05 µM	12.9 µM	
COCCN(CCSc1ccc(O)cc1)CCSc1ccc(O)cc1 [Compound 104]	2.11 µM	1.74 µM	
Oc1ccc(SCCN(CCSc2ccc(O)cc2)Cc2ccccc2F)cc1 [Compound 105]	3.99 µM	9.07 µM	
Oc1ccc(SCCN(CCSc2ccc(O)cc2)Cc2ccc(F)cc2)cc1 [Compound 106]	4.64 µM	6.77 µM	
O=C(CCN(CCSc1ccc(O)cc1)CCSc1ccc(O)cc1)N1CCOCC1 [Compound 107]	4.2 µM	24.9 µM	
O=C(CCN(CCSc1ccc(O)cc1)CCSc1ccc(O)cc1)N1CCCCC1 [Compound 108]	0.64 µM	2.64 µM	
CCN(CC)CCN(CCSc1ccc(O)cc1)CCSc1ccc(O)cc1 [Compound 109]	2.36 µM	38.9 µM	
Oc1ccc(SCCN(CCSc2ccc(O)cc2)CCN2CCCCC2)cc1 [Compound 111]	1.85 µM	11.4 µM	
CCC(=O)N(CCSc1ccc(O)cc1)CCSc1ccc(O)cc1 [Compound 113]	4.77 µM	3.8 µM	
O=C(c1ccccc1)N(CCSc1ccc(O)cc1)CCSc1ccc(O)cc1 [Compound 114]	3.44 µM	2.74 µM	
O=C(c1ccccn1)N(CCSc1ccc(O)cc1)CCSc1ccc(O)cc1 [Compound 115]	4.14 µM	6.14 µM	
O=C(c1cccnc1)N(CCSc1ccc(O)cc1)CCSc1ccc(O)cc1 [Compound 116]	4.13 µM	3.02 µM	
O=C(c1ccncc1)N(CCSc1ccc(O)cc1)CCSc1ccc(O)cc1 [Compound 117]	1.69 µM	2.72 µM	
CS(=O)(=O)N(CCSc1ccc(O)cc1)CCSc1ccc(O)cc1 [Compound 118]	6.87 µM	7.78 µM	
O=C(N1CCOCC1)N(CCSc1ccc(O)cc1)CCSc1ccc(O)cc1 [Compound 124]	0.09 µM	3.68 µM	
O=C(N1CCCCC1)N(CCSc1ccc(O)cc1)CCSc1ccc(O)cc1 [Compound 125]	0.91 µM	4.55 µM	
Oc1ccc(SSc2ccc(O)cc2)cc1 [Compound 131]	6.59 µM	128 µM	
Oc1ccc(SCSc2ccc(O)cc2)cc1 [Compound 132]	3.5 µM	45.6 µM	
Oc1ccc(SCCSc2ccc(O)cc2)cc1 [Compound 133]	2.27 µM	14.5 µM	
Oc1ccc(SCCCSc2ccc(O)cc2)cc1 [Compound 134]	0.68 µM	2.05 µM	
Oc1ccc(SCCCCSc2ccc(O)cc2)cc1 [Compound 135]	0.43 µM	6.02 µM	
Oc1ccc(SCCCCCSc2ccc(O)cc2)cc1 [Compound 136]	0.69 µM	9.14 µM	
Oc1ccc(SCCCCCCSc2ccc(O)cc2)cc1 [Compound 137]	0.87 µM	5.45 µM	
Oc1ccc(SCCCCCCCSc2ccc(O)cc2)cc1 [Compound 138]	2.29 µM	18.3 µM	
CC(CSc1ccc(O)cc1)Sc1ccc(O)cc1 (stereo not drawn) [Compound 152]	5.14 µM	18 µM	
NC(=O)CN(CCSc1ccc(O)cc1)CCSc1ccc(O)cc1 [Compound 224]			0.4 µM
NC(=O)CN(CCSc1ccc(O)cc1)CCSc1ccc(O)cc1 [Compound 225]			0.55 µM
